Tests used:
Assay type in all cases: cell-based
[1] = tested on: CRBPI gene RARE, bound and activated by RAR/RXR heterodimers; assay: Transient transfection CAT reporter assay, CRBPI-RARE; details: CV-1 cells; retinoids 7 and 20 at 5×10^-7 M
Procedure: (§1) To carry out the analysis, four different reporter constructs were prepared carrying the aforementioned gene, followed by cotransfection with RARα, RARβ, or RXRα, or with RXRα and RARα together. […] CV- 1 cells or HEP G2 cells were grown in DME medium supplemented with 10% fetal calf serum. Cells were plated at 1.0×10^5 per well in a 24-well plate 16-24 hours before transfection. In general, 100 ng of reporter plasmid, 150 ng of β-galactosidase expression vector (pCH110, Pharmacia), and variable amounts of receptor expression vector were mixed with carrier DNA (pBluescript) to 1,000 ng of total DNA per well. […] The retinoids 7 and 20 were analyzed at a concentration of 5×10^-7 M.

RXR (RXRα) = molecular target: T1, RXR (RXRα) (Homo sapiens, UniProt P19793); assay: TREpal-tk-reporter gene transient transfection assay with RXR expression vector; details: for activity on TREpal-tk-reporter with RXR at 10^-7 M / activity on TREpal-tk-reporter with RXR at 10^-8 M / activity with RXR on TREpal-tk-reporter, preliminary evaluation: CV-1 cells; for activity with RXR on TREpal-tk-reporter, preliminary evaluation: RXR expression vector cotransfected; for activation of RXRα (overall conclusion): from TREpal and CRBPII reporter results
T1 construct: homodimer readout
T1 sequence (P19793 1-462): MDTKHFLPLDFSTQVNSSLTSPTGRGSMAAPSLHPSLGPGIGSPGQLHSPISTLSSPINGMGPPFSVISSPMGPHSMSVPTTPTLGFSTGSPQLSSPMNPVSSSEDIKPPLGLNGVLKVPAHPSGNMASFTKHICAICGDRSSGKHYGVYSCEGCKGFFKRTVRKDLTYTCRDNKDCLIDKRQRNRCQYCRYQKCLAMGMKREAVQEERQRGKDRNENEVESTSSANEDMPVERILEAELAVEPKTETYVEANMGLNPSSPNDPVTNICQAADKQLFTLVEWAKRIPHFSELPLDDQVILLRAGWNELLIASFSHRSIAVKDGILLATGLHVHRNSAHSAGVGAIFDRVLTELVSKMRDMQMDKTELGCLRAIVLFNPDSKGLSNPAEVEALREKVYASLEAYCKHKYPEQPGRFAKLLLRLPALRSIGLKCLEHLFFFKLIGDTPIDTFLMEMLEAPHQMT
Source text: The TREpal-tk-reporter gene was use in the transient transfection assay of the preceding example to evaluate compounds 7 and 20 for induction of RXR activity specifically. The TREpal represents a response element that is activated by both RAR/RXR heterodimers and RXR homodimers (X-K. Zhang et al., Nature 358:587 (1992)).

[2] = tested on: CRBPII-RARE, activated only by RXR homodimers; assay: Transient transfection CAT reporter assay, CRBPII-RARE; details: CV-1 cells; retinoids 7 and 20 at 5×10^-7 M
Procedure: as §1

[3] = tested on: RARβ2 gene promoter RARE (βRARE); assay: Transient transfection CAT reporter assay, βRARE; details: CV-1 cells; 5×10^-7 M
Procedure: (§2) To carry out the analysis, four different reporter constructs were prepared carrying the aforementioned gene, followed by cotransfection with RARα, RARβ, or RXRα, or with RXRα and RARα together. […] CV- 1 cells or HEP G2 cells were grown in DME medium supplemented with 10% fetal calf serum. Cells were plated at 1.0×10^5 per well in a 24-well plate 16-24 hours before transfection. In general, 100 ng of reporter plasmid, 150 ng of β-galactosidase expression vector (pCH110, Pharmacia), and variable amounts of receptor expression vector were mixed with carrier DNA (pBluescript) to 1,000 ng of total DNA per well. Chloramphenicol acetyl transferase (CAT) activity was normalized for transfection efficiency by the corresponding β-galactosidase activity as described by M. Pfahl et al., /Methods in Enzymology 153:256 (1990).

RXR = assay: Transient transfection reporter assay in other cell lines incl. Hep G2; details: various other cell lines, including Hep G2 cells (particular high response)
Procedure: as §2

activity with RXR on TREpal-tk-reporter, preliminary evaluation (RXR (RXRα))	activation of RXRα (overall conclusion) (RXR (RXRα))	Compound	activation of CRBPI-RARE reporter (CAT activity) [1]	activity on TREpal-tk-reporter with RXR at 10^-7 M (RXR (RXRα))	activity on TREpal-tk-reporter with RXR at 10^-8 M (RXR (RXRα))	activation of CRBPII-RARE reporter (CAT activity) [2]	activation of βRARE reporter (CAT activity) [3]	RXR-specific activation in other cell lines (RXR)
indicated activity with RXR	effective activators	CC1(C)CCC(C)(C)c2cc(C3(c4ccc(C(=O)O)cc4)SCCS3)ccc21 [Compound 7, [2-(5,6,7,8-Tetrahydro-5,5,8,8-tetramethyl-2-naphthalenyl)-2-(4-carboxyphenyl)]-1,3-dithiolane]	no response	activities similar to 9-cis-retinoic acid	neither of the active compounds revealed activity	strong activators	slightly activated	–
indicated activity with RXR	effective activators	CC(C)=C(c1ccc(C(=O)O)cc1)c1ccc2c(c1)C(C)(C)CCC2(C)C [Compound 20, 4-[1-(5,6,7,8-Tetrahydro-5,5,8,8-tetramethyl-2-naphthalenyl)-2-methyl-1-propenyl]benzoic acid]	no response	activities similar to 9-cis-retinoic acid	neither of the active compounds revealed activity	strong activators	slightly activated	significant and RXR-specific activation

Reference: patent publication US5466861A, “Bridged bicyclic aromatic compounds and their use in modulating gene expression of retinoid receptors” (SRI International, priority 1992, dated 1995)
